Test results taken from ChEMBL document CHEMBL3352114, “Synthesis and biological evaluation of unnatural derivatives of narciclasine: 7-aza-nornarciclasine and its N-oxide” (Bioorg Med Chem Lett, 2014).

Tests used:
Type in all cases: functional, cell-based
[1] = system: HeLa; test: Cytotoxicity against human HeLa cells after 48 hrs by MTT assay
[2] = system: MCF7; test: Cytotoxicity against human MCF7 cells after 48 hrs by MTT assay
[3] = Cytotoxicity against human BxPC3 cells; settings: BXPC-3
[4] = system: DU-145; test: Cytotoxicity against human DU145 cells
[5] = system: NCI-H460; test: Cytotoxicity against human NCI-H460 cells
[6] = Homo sapiens, HeLa, 48 h, read-out: IC50
[7] = Homo sapiens, MCF7, 48 h, read-out: IC50

Row | SMILES | IC50 [1, 6] [µM] | IC50 [2, 7] [µM] | IC50 [3] [µM] | IC50 [4] [µM] | IC50 [5] [µM] | IC50 ([1]; hela) | IC50 ([2]; mcf7)
1 | CC(=O)OC[C@H]1[C@H](O)[C@@H](O)[C@@H](O)[C@@H]2NC(=O)c3c(cc4c(c3O)OCO4)[C@@H]12 | < 0.4 | < 0.4 | 0.07 | – | – | – | –
2 | O=C(OC[C@H]1[C@H](O)[C@@H](O)[C@@H](O)[C@@H]2NC(=O)c3c(cc4c(c3O)OCO4)[C@@H]12)c1ccccc1 | < 0.4 | < 0.4 | 0.01 | 0.01 | 0.03 | – | –
3 | O=C1N[C@@H]2C(=C[C@H](O)[C@@H](O)[C@H]2O)c2cccnc21 [listing 1 of 2 here] | > 100 | > 100 | – | – | – | – | –
4 | O=C1N[C@@H]2C(=C[C@H](O)[C@@H](O)[C@H]2O)c2ccc[n+]([O-])c21 | > 100 | > 100 | – | – | – | – | –
5 | O=C1N[C@@H]2C(=C[C@H](O)[C@@H](O)[C@H]2O)c2cccnc21 [listing 2 of 2 here] | – | – | – | – | – | Not Active | Not Active
6 | O=C1N[C@@H]2C(=C[C@H](O)[C@@H](O)[C@H]2O)c2cc3c(c(O)c21)OCO3 [NARCICLASINE] | – | – | 0.05 | 0.03 | 0.05 | – | –
